Measurements: US9879002B2, “PDE10 inhibitors and related compositions and methods” (Omeros Corporation, priority 2015, dated 2018)
≈ marks a conversion by molar mass, not a printed value. Read-outs that look alike come from different tables or passages of the source.

Legend:
[1] = Solubility assay in simulated Intestinal Fluid pH 7.5; format: physicochemical; conditions: fassgf or other biorelevant, kinetic from dmso stock, shaken 24 hours at room temperature, from 10 mM DMSO stock, detection limit approximately 1 μM, read-out: Solubility test results: Conc. (μM), pH 7.5 (IF)
Experimental: Solubility of each compound was measured by adding 4 μl of a 10 mM DMSO compound stock to 396 μl buffer (either a simulated Gastric Fluid pH 1.2 (0.2% NaCl, 0.7% HCl) or simulated Intestinal Fluid pH 7.5 (0.68% KHPO4, pH with NaOH)). This was shaken for 24 hours at room temperature, spun at 14,000 rpm for 5 minutes, and the supernatant was transferred into a clean eppendorf tube. The absorption spectra of the compound-containing supernatant were measured from 220 to 400 nm and compared with the absorption spectra of a 10 μM acetonitrile stock of the same compound. The concentration of the compound in the supernatant was calculated by comparing the absorbance maximum of the compound in the simulated buffer to that in acetonitrile.

PDE10 [2] = biological target: PDE10 (Homo sapiens, UniProt Q9Y233); test: PDE10 biochemical assay (scintillation proximity assay, [3H]-cGMP substrate)
Experimental: The phosphodiesterase (PDE) activity was measured using a scintillation proximity assay (SPA) with [^3H]-cGMP as the substrate. Purified PDE10 was stored in 40 mM Tris-Cl (pH 8.0)/100 mM NaCl/0.04% Tween-20/20% Glycerol/3 mM DTT and then used to prepare a 10×PDE solution in 50 mM Tris-Cl (pH 7.5)/8.3 mM MgCl2/1.7 mM EGTA. Assays contained (final concentrations): 50 mM Tris-Cl (pH 7.5)/8.3 mM MgCl2/1.7 mM EGTA/0.5 mg/ml BSA/1% DMSO and 2 ng PDE10 in a final volume of 0.1 mL. Inhibition was evaluated at 8 concentrations in duplicate. Reactions were initiated by addition of enzyme and were terminated after 20 minutes at 30° C. by the addition of 50 μl of SPA beads containing Zn^++. The mixture was shaken, allowed to settle for at least 1 hour, and counted in a Wallac plate counter. Results (net cpm) were fitted to a four parameter logistic model using Excel Solver®.

PDE10 [3] = biological target: T1, PDE10 (Mus musculus, UniProt Q8CA95); conditions: cited from Soderling and Beavo 2000; read-out: IC50 (50% inhibitory concentration); cited from earlier work
T1 sequence (Q8CA95 1-790): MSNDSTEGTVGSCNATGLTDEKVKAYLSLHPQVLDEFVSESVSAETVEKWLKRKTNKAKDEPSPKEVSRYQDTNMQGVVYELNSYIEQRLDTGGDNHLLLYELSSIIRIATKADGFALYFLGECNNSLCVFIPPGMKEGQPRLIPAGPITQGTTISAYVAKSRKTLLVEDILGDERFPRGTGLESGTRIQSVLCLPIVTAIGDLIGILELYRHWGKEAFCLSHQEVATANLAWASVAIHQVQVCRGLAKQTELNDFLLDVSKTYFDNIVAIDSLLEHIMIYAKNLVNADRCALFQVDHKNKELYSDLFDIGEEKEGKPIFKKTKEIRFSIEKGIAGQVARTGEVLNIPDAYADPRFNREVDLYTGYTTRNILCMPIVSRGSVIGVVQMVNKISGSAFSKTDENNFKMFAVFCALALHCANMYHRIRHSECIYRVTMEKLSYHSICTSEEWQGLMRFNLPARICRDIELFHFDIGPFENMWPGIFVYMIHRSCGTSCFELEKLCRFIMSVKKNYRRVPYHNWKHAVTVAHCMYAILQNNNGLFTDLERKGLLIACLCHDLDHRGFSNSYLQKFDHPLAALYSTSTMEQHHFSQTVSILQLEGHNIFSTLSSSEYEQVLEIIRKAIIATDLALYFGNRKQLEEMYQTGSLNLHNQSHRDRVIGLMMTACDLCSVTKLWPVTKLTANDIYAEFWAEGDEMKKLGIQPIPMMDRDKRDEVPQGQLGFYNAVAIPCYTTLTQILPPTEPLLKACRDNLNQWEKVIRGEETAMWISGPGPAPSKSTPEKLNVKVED

[4] = SPA, [3H]-cGMP, 20 minutes at 30° C., 8 concentrations in duplicate, read-out: Average IC50
[5] = text statement on the PDE10 biochemical assay, read-out: IC50

PDE10 (Homo sapiens, UniProt Q9Y233), sequence (Q9Y233 whole entry): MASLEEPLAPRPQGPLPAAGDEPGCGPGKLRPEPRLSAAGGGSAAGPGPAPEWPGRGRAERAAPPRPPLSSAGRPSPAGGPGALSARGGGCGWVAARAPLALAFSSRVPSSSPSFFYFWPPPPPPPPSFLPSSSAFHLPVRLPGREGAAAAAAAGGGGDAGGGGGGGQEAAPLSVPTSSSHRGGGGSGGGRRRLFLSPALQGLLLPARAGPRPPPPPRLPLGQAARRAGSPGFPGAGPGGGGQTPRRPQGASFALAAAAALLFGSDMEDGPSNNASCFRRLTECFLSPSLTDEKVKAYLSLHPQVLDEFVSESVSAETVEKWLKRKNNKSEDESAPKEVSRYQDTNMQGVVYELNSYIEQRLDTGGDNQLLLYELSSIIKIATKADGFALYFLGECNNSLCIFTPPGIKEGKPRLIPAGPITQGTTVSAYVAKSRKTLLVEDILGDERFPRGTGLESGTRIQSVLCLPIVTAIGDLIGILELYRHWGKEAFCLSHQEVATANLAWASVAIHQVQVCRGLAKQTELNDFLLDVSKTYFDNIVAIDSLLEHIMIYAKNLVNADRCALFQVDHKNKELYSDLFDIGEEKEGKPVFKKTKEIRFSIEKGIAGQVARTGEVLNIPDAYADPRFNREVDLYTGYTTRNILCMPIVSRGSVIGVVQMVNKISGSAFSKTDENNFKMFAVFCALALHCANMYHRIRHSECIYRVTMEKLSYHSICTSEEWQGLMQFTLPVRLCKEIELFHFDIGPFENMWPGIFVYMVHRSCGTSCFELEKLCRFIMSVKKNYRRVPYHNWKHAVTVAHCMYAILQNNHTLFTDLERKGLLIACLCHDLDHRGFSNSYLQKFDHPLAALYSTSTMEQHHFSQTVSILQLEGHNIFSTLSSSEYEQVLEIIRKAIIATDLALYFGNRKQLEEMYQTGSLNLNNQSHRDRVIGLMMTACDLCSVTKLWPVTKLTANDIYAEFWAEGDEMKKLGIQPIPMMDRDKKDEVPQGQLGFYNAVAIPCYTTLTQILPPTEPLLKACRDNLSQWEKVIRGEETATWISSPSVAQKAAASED

| Compound | solubility at 24 h [1] [µM] | IC50 (PDE10 [2]; [4]) [nM] | IC50 (PDE10 [2]; [5]) [nM] | IC50 (PDE10 [3]) [nM] |
| --- | --- | --- | --- | --- |
| CCOC(C(=O)c1ccc(-c2cc(O)c(Cl)c(OC)c2)o1)c1ccc(-c2nnc(C)s2)cc1 (centres unmarked) [Compound 1, 1-[5-(4-chloro-3-hydroxy-5-methoxyphenyl)furan-2-yl]-2-ethoxy-2-[4-(5-methyl-1,3,4-thiadiazol-yl)phenyl]ethanone] | 2.5 (≈ 1.21 µg/mL) | 37.7 | ≤ 1000 | – |
| CCOC(C(=O)c1ccc(-c2cc(OC)c(Cl)c(OC)c2)o1)c1ccc(-c2nnc(CO)s2)cc1 (centres unmarked) [Compound 2, 1-(5-(4-chloro-3,5-dimethoxyphenyl)furan-2-yl)-2-ethoxy-2-(4-(5-(hydroxymethyl)-1,3,4-thiadiazol-2-yl)phenyl)ethan-1-one] | 5.8 (≈ 2.99 µg/mL) | 1.3 | ≤ 1000 | – |
| CC(C)Cn1c(=O)n(C)c(=O)c2[nH]cnc21 [IBMX] | – | – | – | 2600 |

More lines, main results first:

| solubility at 24 h [1] [µM] | IC50 (PDE10 [2]; [4]) [nM] | IC50 (PDE10 [2]; [5]) [nM] | Compound | IC50 (PDE10 [3]) [nM] |
| --- | --- | --- | --- | --- |
| 78.3 (≈ 51.8 µg/mL) | 652 | ≤ 1000 | CCOC(C(=O)c1ccc(-c2cc(OC)c(Cl)c(O[C@H]3O[C@H](C(=O)O)[C@@H](O)[C@H](O)[C@H]3O)c2)o1)c1ccc(-c2nnc(C)s2)cc1 (stereo partly drawn) [Compound 3, (2S,3S,4S,5R,6R)-6-(2-chloro-5-(5-(2-ethoxy-2-(5-methyl-1,3,4-thiadiazol-2-yl)phenyl)acetyl)furan-2-yl-methoxyphenoxy)-3,4,5-trihydroxytetrahydro-2H-pyran-2-carboxylic acid] | – |
| 2.5 (≈ 1.25 µg/mL) | 127 | ≤ 1000 | CCOC(c1ccc(-c2nnc(C)s2)cc1)C(O)c1ccc(-c2cc(OC)c(Cl)c(OC)c2)o1 (centres unmarked) [Compound 4, 1-(5-(4-chloro-3,5-dimethoxyphenyl)furan-2-yl)-2-ethoxy-2-(4-(5-methyl-1,3,4-thiadiazol-2-yl)phenyl)ethan-1-ol] | – |
| < 1 | – | – | CCOC(C(=O)c1ccc(-c2cc(OC)c(Cl)c(OC)c2)o1)c1ccc(-c2nnc(C)s2)cc1 (centres unmarked) [Compound A, 1-(5-(4-chloro-3,5-dimethoxyphenyl)furan-2-yl)-2-ethoxy-2-(4-(5-methyl-l,3,4-thiadiazol-2-yl)phenyl)ethan-1-one, reference compound] | – |
